According to patent publication US5691348A, “Pyridyl imidazole derivatives and processes for the preparation thereof” (Daewoo Electronics Co., Ltd., priority 1994, dated 1997):

Tests used:
renal hypertensive rat [1] = assay: Blood pressure lowering effect with respect to dose (renal hypertensive rats); type: in vivo, Sprague-Dawley rat; settings: oral
From the text: (§1) To induce renal hypertension, left renal artery of 4 week-old male Sprague-Dawley rat (from The Korea Research Institute of Chemical Technology) was ligated. The rat was anesthetized with ether and the surgical region on the left abdomen of the rat was shaved, disinfected, and then incised about 1 cm vertically. The renal artery near abdominal aorta was isolated carefully from surrounding tissues and veins, and then ligated completely with a suture (4/0 sterile surgical silk). The muscular strata and skin of the surgical area were sutured with a suture (4/0 sterile surgical silk). The surgical region was disinfected to prevent infection and thereafter, 200 to 250 mg/kg/day of cephazolin sodium was injected intramuscularly for 2 days. 6 to 8 days after the ligation, rats showing systolic pressure of more than 180 mmHg were selected for renal hypertension test. The blood pressure was determined by a tail-cuff method from the tail under unanesthetized condition (Gerold, M. et al., Arzneimittel-Forsch., 18, 1285(1968)).
(§2) Each of the compounds to be tested was administered intravenously or orally into the renal hypertensive rat. The blood pressure of the rat was determined by direct method (Chiu, A. T. et al., J. Pharmacol. Exp. Ther., 250, 867(1989)) using a catheter. The rat was anesthetized with ketamine hydrochloride (125 mg/kg, i.p.) and a catheter was filled with saline and inserted into a carotid artery and […]. The surgical area was sutured with a metal clip. The rat was relaxed at least 3 hours and the catheter in the carotid artery was adapted to an isotec pressure transducer to determine the blood pressure and heart rate with a physiograph (Linearcorder WR3310). After the blood pressure was stabilized, the test compound was administered intravenously or orally. For intravenous administration, the administered volume and washing volume were 1.0 ml/kg and 0.2 ml, respectively. The blood pressure and heart rate were measured in regular intervals up to 24 hours after the administration of the test compound and compared with those measured after the administration of the control compound Losartan.
(§3) The test compound was dissolved in 0.05N KOH for intravenous administration and suspended in Tween 80 for oral administration.
The present compounds, Losartan(Dup 753) and the Merck compound were administrated orally to rats in 10, 3 and 1 mg/kg under the same condition as in (ii) and the blood pressure lowering effect was determined.

unanesthetized dogs [2] = assay: Maximum blood pressure lowering effect in unanesthetized dogs at different amounts; type: in vivo, dog
Method: (§4) A number of dog was fed freely in a feeding room and those weighing 7 to 12 kg in good health were selected regardless of their gender.
(§5) The test dog was anesthetized with 30 mg/kg of pentobarbital sodium by intravenous injection and the left femoral artery and femoral vein were separated carefully. Silicone catheter, specially prepared and filled with saline treated with heparin (1,000 IU/ml), was cannulated into the blood vessels. After the surgery, the dog was constrained to measure the blood pressure continuously with Gould 2000 physiograph adapted to a Grass P23XL pressure transducer; and the heart rate was monitored with ECG/Biotacho amplifier. The dog was tested at least 2 days after the surgery.
10 mg/kg of furosemide was injected intramuscularly 18 hours (in case of intravenous injection, 2 hours) before the beginning of the test (administration of the test compound) to improve the activity of renin in blood plasma. After the injection of furosemide, neither food nor water was provided. The test compound was suspended in Tween 80 and administered in an amount of 20 mg/kg orally. The blood pressure and heart rate were measured up to 8 hours after the administration of each test compound.
The maximum blood pressure lowering effect of the present compounds and the control compounds were determined in different amounts of administration using the same method as (i) and the results are given in Table 4.

renal hypertensive rats = assay: Duration of action in renal hypertensive rats; type: in vivo, Sprague-Dawley rat; settings: 3 mg/kg oral
From the text: as §1, §2, §3
The compound of Example 1 and the Merck compound were tested using the hypertensive rats of test 2(i). 3 mg/kg of each compound was administered orally and blood pressure lowering effect with time was determined to measure the duration of action of the compounds.

[3] = system: furosemide-administered dogs; assay: Duration of action in furosemide-administered dogs; type: in vivo, dog; settings: 0.3 mg oral
Method: as §4, §5
(§6) 10 mg/kg of furosemide was injected intramuscularly 18 hours (in case of intravenous injection, 2 hours) before the beginning of the test (administration of the test compound) to improve the activity of renin in blood plasma. After the injection of furosemide, neither food nor water was provided. […] The blood pressure and heart rate were measured up to 8 hours after the administration of each test compound.
The compound of Example 1 and the Merck compound were administered orally to the furosemide-administrated dogs as in test 3(i), and blood pressure lowering effect was measured with time.

[4] = Metabolite analysis: enzyme digestion test with rat liver microsome, HPLC; type: in vitro ADME; settings: 100 μM, 1 hour at 37° C.; for metabolite from the enzymatic digestion: rat liver microsome, HPLC (FIG. 1)
Method: Enzyme digestion test was executed in order to detect the metabolite of the test compound in vivo.
500 μg of NADP^+, 11 U of glucose-6-phosphate dehydrogenase and 200 μg of rat liver microsome were added to 1 ml of 0.1M phosphate buffer (pH 7.4), and to the resulting solution was added glucose-6-phosphate to a concentration of 10 mM. The resultant was incubated for 1 minute at 37° C. and added with each of the present compound (Example 3) and the Merck compound to a concentration of 100 μM. The mixture was incubated for 1 hour at 37° C., and then was added with 2 ml of dichloromethan to cease the reaction. The resultant was extracted with dichloromethan and the extract was evaporated to obtain a residue. The reside was analyzed using HPLC after dissolving in a mobile phase of the HPLC.
Column: Nucleosil phenyl column (0.46×25 cm, 5 μM)
Mobile phase: acetonitrile (50 mM, pH 5.0; 35:65, v/v)
FIG. 1 is a HPLC chart showing the result of the enzyme digestion test of the Merck compound and the compound of Example 3.

angiotensin II receptor = assay: Angiotensin II receptor binding assay ([3H] angiotensin II); parameters: species or system rat (Sprague-Dawley adrenal cortex/medulla; Wistar liver); settings: 25° C., 60 minutes, test concentration not given
Method: 1. Angiotensin II receptor binding assay
In accordance with the procedure disclosed in Chiu, A. T. et al., Eur. J. Pharm., 157, 13(1981), a ligand marked with a radioisotope was reacted with an angiotensin II receptor and the reactant was filtered with a glass fiber to remove unreacted ligand. After washing the filter, the amount of the remaining isotope was measured to determine the binding activity of the ligand, as described below in detail.
Sprague-Dawley rats and Wistar rats of 250 to 350 g (from The Korea Research Institute of Chemical Technology) were tested and the test procedures were carried out at 4° C., unless otherwise specified. Adrenal gland was separated from the Sprague-Dawley rats (liver, in the case of Wistar rats) into cortex and medulla. The separated adrenal cortex and medulla were washed with a sucrose buffer solution (0.2M sucrose, 1 mM EDTA, 10 mM Tris, Ph 7.2) and homogenized in the same buffer solution by using a Teflon pestle and a Brinkmann homogenizer. The homogenates were centrifuged at 3,000× g for 10 minutes to remove precipitates and further centrifuged at 12,000× g for 13 minutes. The final supernatants were centrifuged at 102,000× g for 1 hour to obtain precipitates, which were washed with a Tris buffer solution (50 mM Tris, 5 mM MgCl2, pH 7.2) and recentrifuged at 102,000× g for 1 hour. The resulting precipitates were immediately processed at the following step or stored at -70° C.
The precipitates were suspended in a Tris buffer solution. The amount of protein was determined by using a Bio-Rad DC protein analyzing kit and the protein concentration was adjusted to the amounts of: 0.2 to 0.3 mg/ml (Sprague-Dawley rat: adrenal cortex), 1.5 to 2.0 mg/ml (Sprague-Dawley rat: adrenal medulla), and 1.5 to 2.0 mg/ml (Wistar rat: liver). To the suspension, bovine serum albumin(BSA) was added to a concentration of 0.25 wt % and the resultant was immediately processed at the following step or stored at -70° C.
50 μl (based on ligand) of [^3 H] angiotensin II (NEN, NET-446) and 10 μl of each of the test compounds with various concentrations were added to the buffer solution (50 mM Tris (pH 7.2), 5 mM MgCl2, 0.25% BSA) to adjust the final volume to be 0.5 ml. 100 μl of the receptor suspension was added thereto and the resulting solution was reacted for 60 minutes while stirring in a water bath at 25° C. 3 ml of cold buffer solution for analysis was added to cease the reaction. The isotope which was bound to the receptor was isolated from the resultant by using Brandel Cell Harvester System with Whatman glass fiber GF/C. After washing the filter, the radioactivity of the filter was determined by using a liquid scintillation counter. Binding inhibition(%) of the test compound was calculated as follows:
Binding Inhibition(%)=[{(T-B)-(S-B)}/(T-B)]×100
wherein T is the radioactivity (cpm) of the reaction product untreated with the test compound, S is the radioactivity (cpm) of the reaction product treated with the test compound, and B is the radioactivity (cpm) of blank test.

renal hypertensive rat [5] = assay: Blood pressure lowering effect in renal hypertension; type: in vivo, Sprague-Dawley rat; settings: Amount 3 mg; intravenous or oral (not specified)
From the text: as §1, §2, §3

unanesthetized dogs [6] = assay: Blood pressure variation with time in unanesthetized dogs; type: in vivo, dog; settings: 1.0 mg, oral
Method: as §4, §5, §6

CCc1nc2c(C)cc(C)nc2n1Cc1ccc(-c2ccccc2-c2nnn[nH]2)cc1 [Merck Compound, reference compound]
Maximum Blood Pressure Lowering Effect (renal hypertensive rat [1]; 3 mg/kg): -40% | Maximum Blood Pressure Lowering Effect (unanesthetized dogs [2]; 0.1 mg/kg): -20% | Maximum Blood Pressure Lowering Effect (unanesthetized dogs [2]; 0.3 mg/kg): -24% | Maximum Blood Pressure Lowering Effect (renal hypertensive rats; 0 min): 0% | Maximum Blood Pressure Lowering Effect (renal hypertensive rats; 10 min): -15% | Maximum Blood Pressure Lowering Effect (renal hypertensive rats; 20 min): -27% | Maximum Blood Pressure Lowering Effect (renal hypertensive rats; 30 min): -28% | Maximum Blood Pressure Lowering Effect (renal hypertensive rats; 60 min): -26% | Maximum Blood Pressure Lowering Effect (renal hypertensive rats; 90 min): -28% | Maximum Blood Pressure Lowering Effect (renal hypertensive rats; 120 min): -25% | Maximum Blood Pressure Lowering Effect (renal hypertensive rats; 240 min): -40% | Maximum Blood Pressure Lowering Effect (renal hypertensive rats; 360 min): -36% | Maximum Blood Pressure Lowering Effect (renal hypertensive rats; 1320 min): -35% | Maximum Blood Pressure Lowering Effect (renal hypertensive rats; 1440 min): -40% | Maximum Blood Pressure Lowering Effect ([3]; 0 min): 0.0% | Maximum Blood Pressure Lowering Effect ([3]; 10 min): -5.0% | Maximum Blood Pressure Lowering Effect ([3]; 20 min): -12.2% | Maximum Blood Pressure Lowering Effect ([3]; 30 min): -14.4% | Maximum Blood Pressure Lowering Effect ([3]; 60 min): -20.1% | Maximum Blood Pressure Lowering Effect ([3]; 90 min): -24.4% | Maximum Blood Pressure Lowering Effect ([3]; 120 min): -19.1% | Maximum Blood Pressure Lowering Effect ([3]; 150 min): -24.2% | Maximum Blood Pressure Lowering Effect ([3]; 180 min): -18.9% | Maximum Blood Pressure Lowering Effect ([3]; 210 min): -17.0% | Maximum Blood Pressure Lowering Effect ([3]; 240 min): -17.0% | Maximum Blood Pressure Lowering Effect ([3]; 270 min): -13.4% | Maximum Blood Pressure Lowering Effect ([3]; 300 min): -14.9% | Maximum Blood Pressure Lowering Effect ([3]; 330 min): -15.6% | Maximum Blood Pressure Lowering Effect ([3]; 360 min): -15.6% | Maximum Blood Pressure Lowering Effect ([3]; 390 min): -11.4% | Maximum Blood Pressure Lowering Effect ([3]; 420 min): -10.7% | Maximum Blood Pressure Lowering Effect ([3]; 450 min): -11.4% | Maximum Blood Pressure Lowering Effect ([3]; 480 min): -13.8% | time for which the maximum blood pressure lowering effect lasted after the administration ([3]; Table 6, dogs): 2 to 3 h | metabolite from the enzymatic digestion [4]: has a metabolite

CCCCc1nc2cc(-c3cccc[n+]3[O-])c(C)nc2n1Cc1ccc(-c2ccccc2-c2nn[nH]n2)cc1 [Example 3, 2-Butyl-5-methyl-6-(1-oxy-pyridin-2-yl)-3-[2'-(1H-tetrazol-5-yl)-biphenyl-4-ylmethyl]-3H-imidazo[4,5-b]pyridine]
Binding Inhibition (angiotensin II receptor): 86.4% | Maximum Blood Pressure Lowering Effect (renal hypertensive rat [5]): -50% | Maximum Blood Pressure Lowering Effect (renal hypertensive rat [1]; 1 mg/kg): -20% | Maximum Blood Pressure Lowering Effect (unanesthetized dogs [6]; 0.5 hr): -16.2% | Maximum Blood Pressure Lowering Effect (unanesthetized dogs [6]; 1 hr): -23.8% | Maximum Blood Pressure Lowering Effect (unanesthetized dogs [6]; 2 hr): -30.0% | Maximum Blood Pressure Lowering Effect (unanesthetized dogs [6]; 4 hr): -32.7% | Maximum Blood Pressure Lowering Effect (unanesthetized dogs [6]; 6 hr): -35.5% | Maximum Blood Pressure Lowering Effect (unanesthetized dogs [6]; 8 hr): -33.0% | Maximum Blood Pressure Lowering Effect (unanesthetized dogs [2]; 0.1 mg/kg): -10% | Maximum Blood Pressure Lowering Effect (unanesthetized dogs [2]; 0.3 mg/kg): -11% | Maximum Blood Pressure Lowering Effect (unanesthetized dogs [2]; 1 mg/kg): -37% | stability against the enzymatic digestion ([4]; in contrast with the Merck compound): good stability against the enzymatic digestion | metabolite from the enzymatic digestion [4]: has no metabolite from the enzymatic digestion
